Experimental data published in ChEMBL document CHEMBL5247649, “Comparative Efficacy and Selectivity of Pharmacological Inhibitors of DYRK and CLK Protein Kinases” (J Med Chem, 2023).

Columns and labels:
[1] = biological target: Cyclin-dependent kinase 5/CDK5 activator 1 (Homo sapiens, UniProt Q00535); assay: biochemical; type: cell-based, Sf9
[2] = biological target: Casein kinase I isoform epsilon (Homo sapiens, UniProt P49674); assay: biochemical; type: cell-based, Sf9
[3] = biological target: T1, Dual specificity protein kinase CLK1 (Homo sapiens, UniProt P49759); assay: biochemical; type: cell-based, Sf9
[4] = biological target: Dual specificity protein kinase CLK3 (Homo sapiens, UniProt P49761); assay: biochemical; type: cell-based, Sf9
[5] = biological target: T2, Dual specificity tyrosine-phosphorylation-regulated kinase 2 (Homo sapiens, UniProt Q92630); assay: biochemical; type: cell-based, Sf9
T2 sequence (Q92630 whole entry): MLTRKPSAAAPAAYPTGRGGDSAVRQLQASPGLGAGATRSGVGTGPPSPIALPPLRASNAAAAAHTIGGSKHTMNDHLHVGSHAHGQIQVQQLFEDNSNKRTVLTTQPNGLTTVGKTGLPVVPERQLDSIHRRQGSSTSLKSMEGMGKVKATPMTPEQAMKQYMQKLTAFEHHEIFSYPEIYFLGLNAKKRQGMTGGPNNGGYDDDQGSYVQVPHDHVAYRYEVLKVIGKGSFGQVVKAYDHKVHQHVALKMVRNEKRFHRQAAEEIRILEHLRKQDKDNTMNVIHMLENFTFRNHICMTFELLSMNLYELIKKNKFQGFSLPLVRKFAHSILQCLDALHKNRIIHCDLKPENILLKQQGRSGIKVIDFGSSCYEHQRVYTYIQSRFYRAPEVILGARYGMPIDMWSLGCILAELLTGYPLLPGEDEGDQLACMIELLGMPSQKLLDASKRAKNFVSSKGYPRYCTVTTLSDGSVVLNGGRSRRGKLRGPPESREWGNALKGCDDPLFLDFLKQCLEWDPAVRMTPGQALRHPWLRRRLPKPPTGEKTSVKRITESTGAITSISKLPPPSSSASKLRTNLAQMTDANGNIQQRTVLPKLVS

[6] = biological target: T3, Dual specificity tyrosine-phosphorylation-regulated kinase 3 (Homo sapiens, UniProt O43781); assay: biochemical; type: cell-based, Sf9
T3 sequence (O43781 whole entry): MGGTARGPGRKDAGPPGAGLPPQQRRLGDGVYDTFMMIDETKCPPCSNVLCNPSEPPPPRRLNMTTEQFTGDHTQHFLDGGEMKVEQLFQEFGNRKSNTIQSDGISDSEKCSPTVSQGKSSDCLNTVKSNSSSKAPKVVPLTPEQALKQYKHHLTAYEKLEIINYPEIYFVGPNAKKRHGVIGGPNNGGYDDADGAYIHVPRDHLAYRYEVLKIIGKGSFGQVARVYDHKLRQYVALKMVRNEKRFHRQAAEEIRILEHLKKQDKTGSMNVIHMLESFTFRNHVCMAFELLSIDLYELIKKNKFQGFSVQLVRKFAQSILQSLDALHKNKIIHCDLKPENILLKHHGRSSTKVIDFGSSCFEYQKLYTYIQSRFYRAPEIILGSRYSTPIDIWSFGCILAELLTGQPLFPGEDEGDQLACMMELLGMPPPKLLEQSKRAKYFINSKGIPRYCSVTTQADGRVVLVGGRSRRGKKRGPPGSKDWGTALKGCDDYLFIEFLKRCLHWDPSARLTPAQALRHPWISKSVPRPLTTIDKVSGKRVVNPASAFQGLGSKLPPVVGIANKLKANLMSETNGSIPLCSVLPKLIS

[7] = biological target: T4, Dual specificity tyrosine-phosphorylation-regulated kinase 4 (Homo sapiens, UniProt Q9NR20); assay: biochemical; type: cell-based, Sf9
T4 sequence (Q9NR20 whole entry): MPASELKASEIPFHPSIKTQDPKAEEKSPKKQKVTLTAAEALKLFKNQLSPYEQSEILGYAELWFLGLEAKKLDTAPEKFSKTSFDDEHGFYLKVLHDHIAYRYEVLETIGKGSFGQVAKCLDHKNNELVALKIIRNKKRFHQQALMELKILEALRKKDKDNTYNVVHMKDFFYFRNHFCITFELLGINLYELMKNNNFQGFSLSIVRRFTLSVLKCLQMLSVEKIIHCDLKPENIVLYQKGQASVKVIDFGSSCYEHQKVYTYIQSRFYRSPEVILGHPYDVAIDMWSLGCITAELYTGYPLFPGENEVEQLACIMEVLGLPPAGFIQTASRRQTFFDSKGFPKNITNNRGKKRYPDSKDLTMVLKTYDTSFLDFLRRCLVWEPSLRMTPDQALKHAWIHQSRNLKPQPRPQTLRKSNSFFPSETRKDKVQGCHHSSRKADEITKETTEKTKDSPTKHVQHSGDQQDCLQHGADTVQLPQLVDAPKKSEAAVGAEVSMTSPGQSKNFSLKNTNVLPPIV

[8] = biological target: T5, Glycogen synthase kinase-3 beta (Homo sapiens, UniProt P49841); assay: biochemical; type: cell-based, Sf9
[9] = biological target: T1, Dual specificity protein kinase CLK1; assay: biochemical; type: cell-based, Sf9; remark: listed apart in the source
[10] = biological target: T1, Dual specificity protein kinase CLK1
[11] = biological target: T5, Glycogen synthase kinase-3 beta
[12] = in vitro; conditions: mouse, ht-22
[13] = biological target: Dual specificity protein kinase CLK2 (Homo sapiens, UniProt P49760); assay: biochemical
[14] = biological target: Dual specificity protein kinase CLK4 (Homo sapiens, UniProt Q9HAZ1); assay: biochemical
Chain of Dual specificity protein kinase CLK4 (Q9HAZ1 whole entry): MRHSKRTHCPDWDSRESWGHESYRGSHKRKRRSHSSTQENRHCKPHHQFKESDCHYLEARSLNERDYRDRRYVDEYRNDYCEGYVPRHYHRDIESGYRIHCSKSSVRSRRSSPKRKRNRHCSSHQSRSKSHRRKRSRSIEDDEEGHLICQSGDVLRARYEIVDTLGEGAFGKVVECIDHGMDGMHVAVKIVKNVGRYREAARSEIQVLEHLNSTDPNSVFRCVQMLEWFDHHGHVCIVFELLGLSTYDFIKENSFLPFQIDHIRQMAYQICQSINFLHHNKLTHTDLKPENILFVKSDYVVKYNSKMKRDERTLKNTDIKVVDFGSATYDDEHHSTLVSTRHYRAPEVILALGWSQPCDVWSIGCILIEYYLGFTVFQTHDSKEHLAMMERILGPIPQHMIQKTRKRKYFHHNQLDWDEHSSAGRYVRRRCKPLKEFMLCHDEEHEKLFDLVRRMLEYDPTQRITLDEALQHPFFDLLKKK

T1 sequence (P49759 whole entry): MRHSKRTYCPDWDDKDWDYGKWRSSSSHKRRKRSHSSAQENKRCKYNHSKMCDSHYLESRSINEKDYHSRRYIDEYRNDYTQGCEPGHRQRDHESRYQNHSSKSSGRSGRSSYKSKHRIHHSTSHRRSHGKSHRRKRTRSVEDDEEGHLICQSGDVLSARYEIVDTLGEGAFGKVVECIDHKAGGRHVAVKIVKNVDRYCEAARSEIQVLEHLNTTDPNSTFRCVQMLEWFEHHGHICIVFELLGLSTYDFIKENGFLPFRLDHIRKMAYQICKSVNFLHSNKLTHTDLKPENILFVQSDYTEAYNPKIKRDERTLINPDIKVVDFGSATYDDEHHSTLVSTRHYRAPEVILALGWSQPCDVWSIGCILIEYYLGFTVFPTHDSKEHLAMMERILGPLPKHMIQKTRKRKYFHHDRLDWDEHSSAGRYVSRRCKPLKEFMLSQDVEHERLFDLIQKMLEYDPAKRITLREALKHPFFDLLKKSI
Chain of Dual specificity protein kinase CLK3 (P49761 whole entry): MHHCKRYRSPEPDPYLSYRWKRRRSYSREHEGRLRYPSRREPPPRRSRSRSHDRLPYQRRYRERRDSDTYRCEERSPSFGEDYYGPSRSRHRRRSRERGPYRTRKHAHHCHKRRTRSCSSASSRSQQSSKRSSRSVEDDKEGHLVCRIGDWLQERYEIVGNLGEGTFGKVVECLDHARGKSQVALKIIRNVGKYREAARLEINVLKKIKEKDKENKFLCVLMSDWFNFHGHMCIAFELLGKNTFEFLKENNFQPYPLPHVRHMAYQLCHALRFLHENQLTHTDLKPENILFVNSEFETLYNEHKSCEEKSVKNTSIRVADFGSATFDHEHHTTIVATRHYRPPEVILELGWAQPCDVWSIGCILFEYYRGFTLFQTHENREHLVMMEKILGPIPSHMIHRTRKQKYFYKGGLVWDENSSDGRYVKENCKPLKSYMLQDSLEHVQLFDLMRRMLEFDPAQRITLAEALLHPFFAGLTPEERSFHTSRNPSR
Chain of Casein kinase I isoform epsilon (P49674 whole entry, canonical isoform): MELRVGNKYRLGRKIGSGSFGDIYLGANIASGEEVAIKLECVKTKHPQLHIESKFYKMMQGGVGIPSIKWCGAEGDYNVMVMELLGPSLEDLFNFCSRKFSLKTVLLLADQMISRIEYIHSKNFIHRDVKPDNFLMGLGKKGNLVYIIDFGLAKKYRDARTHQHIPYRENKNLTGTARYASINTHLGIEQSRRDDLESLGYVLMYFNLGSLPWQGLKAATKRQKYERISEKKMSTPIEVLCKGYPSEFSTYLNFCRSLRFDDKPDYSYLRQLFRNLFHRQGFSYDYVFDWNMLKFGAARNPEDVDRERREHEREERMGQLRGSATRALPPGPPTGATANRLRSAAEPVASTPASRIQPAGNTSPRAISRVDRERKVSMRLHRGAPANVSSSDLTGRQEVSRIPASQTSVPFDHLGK
T5 sequence (P49841 whole entry): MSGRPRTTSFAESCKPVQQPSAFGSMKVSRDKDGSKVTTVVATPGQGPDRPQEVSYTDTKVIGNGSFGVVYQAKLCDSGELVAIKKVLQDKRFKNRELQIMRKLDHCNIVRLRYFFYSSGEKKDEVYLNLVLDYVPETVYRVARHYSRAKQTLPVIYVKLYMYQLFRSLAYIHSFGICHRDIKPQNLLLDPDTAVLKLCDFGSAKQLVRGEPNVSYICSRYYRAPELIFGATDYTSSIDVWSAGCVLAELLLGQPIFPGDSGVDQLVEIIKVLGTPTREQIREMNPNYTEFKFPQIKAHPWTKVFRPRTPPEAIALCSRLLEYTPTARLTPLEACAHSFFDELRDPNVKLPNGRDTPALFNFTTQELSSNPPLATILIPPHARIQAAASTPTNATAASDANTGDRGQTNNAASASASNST
Chain of Dual specificity protein kinase CLK2 (P49760 whole entry): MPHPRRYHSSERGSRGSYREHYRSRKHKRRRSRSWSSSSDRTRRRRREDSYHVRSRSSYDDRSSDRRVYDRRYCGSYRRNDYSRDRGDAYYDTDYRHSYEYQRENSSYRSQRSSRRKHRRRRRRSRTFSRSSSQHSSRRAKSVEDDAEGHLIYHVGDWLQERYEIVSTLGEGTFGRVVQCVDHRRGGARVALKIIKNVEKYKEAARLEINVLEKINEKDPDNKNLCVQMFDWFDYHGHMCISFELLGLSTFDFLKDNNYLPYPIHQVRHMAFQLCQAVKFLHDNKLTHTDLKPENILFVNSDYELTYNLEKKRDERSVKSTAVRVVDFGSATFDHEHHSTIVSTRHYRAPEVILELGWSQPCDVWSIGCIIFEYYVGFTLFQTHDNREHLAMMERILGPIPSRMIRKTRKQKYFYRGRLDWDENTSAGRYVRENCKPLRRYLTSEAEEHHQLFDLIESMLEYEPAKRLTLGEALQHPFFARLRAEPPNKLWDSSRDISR
Chain of Cyclin-dependent kinase 5/CDK5 activator 1 (Q00535 whole entry, canonical isoform): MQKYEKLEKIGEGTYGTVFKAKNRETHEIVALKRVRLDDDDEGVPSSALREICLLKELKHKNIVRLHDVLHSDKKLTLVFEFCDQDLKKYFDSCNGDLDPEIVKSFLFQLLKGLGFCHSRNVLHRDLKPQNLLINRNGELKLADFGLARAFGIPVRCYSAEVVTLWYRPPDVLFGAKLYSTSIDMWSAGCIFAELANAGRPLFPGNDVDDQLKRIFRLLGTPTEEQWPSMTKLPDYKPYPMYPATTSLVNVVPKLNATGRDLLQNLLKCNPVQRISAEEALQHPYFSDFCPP
Chain of Cyclin-dependent kinase 5/CDK5 activator 1 (Q15078 whole entry, further chain, canonical isoform): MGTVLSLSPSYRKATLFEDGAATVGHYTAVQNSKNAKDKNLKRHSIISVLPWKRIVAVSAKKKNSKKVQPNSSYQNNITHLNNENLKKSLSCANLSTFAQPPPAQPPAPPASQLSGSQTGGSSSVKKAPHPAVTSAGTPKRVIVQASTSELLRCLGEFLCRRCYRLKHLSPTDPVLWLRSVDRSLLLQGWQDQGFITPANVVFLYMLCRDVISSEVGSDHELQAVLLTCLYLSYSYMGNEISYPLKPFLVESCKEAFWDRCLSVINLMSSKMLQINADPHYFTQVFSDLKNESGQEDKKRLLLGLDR

| Compound | IC50 [1] [nM] | IC50 [2] [nM] | IC50 [3] [nM] | IC50 [4] [nM] | IC50 [5] [nM] | IC50 [6] [nM] | IC50 [7] [nM] | IC50 [8] [nM] | IC50 ([9]; read-out: IC50) [nM] | Kd [10] [nM] | Kd [11] [nM] | IC50 at 48 h [12] [nM] | IC50 [13] [nM] | IC50 [14] [nM] | IC50 ([9]; sf9) |
| --- | --- | --- | --- | --- | --- | --- | --- | --- | --- | --- | --- | --- | --- | --- | --- |
| COc1ccc2c3ccnc(Cl)c3n(CC#N)c2c1 | > 10000 | > 10000 | 157 | 4920 | 813 | 1220 | 8370 | > 10000 | 88.3 | 8.7 | 2580 | 97000 | 630 | 23.8 | – |
| CCN1/C(=C/C(C)=O)Sc2ccc(O)cc21 | > 10000 | 2980 | 44.2 | 4790 | 226 | 82.6 | 894 | 4400 | – | 1.27 | 1640 | > 100000 | 315 | 10.9 | – |
| COC(=N)c1nc2ccc3ncnc(Nc4ccc(OC)cc4F)c3c2s1 | > 10000 | > 10000 | 1210 | > 10000 | 323 | > 10000 | > 10000 | 5330 | 111 | 7.63 | 160 | 21600 | > 10000 | 79.6 | – |
| O=c1c2c(O)cc(O)cc2oc2c(O)ccc(O)c12 [DEMETHYLBELLIDIFOLIN] | > 10000 | > 10000 | 239 | 7530 | 2710 | > 10000 | > 10000 | > 10000 | – | 29.7 | > 10000 | 2500 | 1700 | 146 | – |
| Cc1ccc([N+](=O)[O-])cc1S(=O)(=O)N(C)/N=C/c1cnc2ccc(Br)cn12 | 24.5 | 405 | 18.8 | 11.9 | 118 | 10.4 | 2590 | 17.6 | 30.8 | 0.056 | 3.93 | 160 | 1.1 | 6.9 | – |
| CN1Cc2nn(C)c(C#N)c2-c2cnc3[nH]cc(c3c2)-c2cn(nc2C(F)(F)F)CCCC1=O | > 10000 | > 10000 | – | > 10000 | 8780 | > 10000 | > 10000 | > 10000 | – | – | 7290 | 51300 | 6710 | – | – |
| CCOC(=O)c1c(/C(C#N)=C\N)c2ccc(Cl)c(Cl)c2n1C | > 10000 | > 10000 | – | – | > 10000 | > 10000 | > 10000 | > 10000 | – | – | > 10000 | > 100000 | – | 14.8 | – |
| Oc1ccc(-c2cnc3[nH]cc(-c4ccc(F)cc4)c3c2)cc1O | > 10000 | > 10000 | 570 | > 10000 | 3350 | > 10000 | > 10000 | > 10000 | 180 | 70.8 | > 10000 | 9000 | 1990 | 890 | – |
| c1ccc(-c2ccc3[nH]ncc3c2)cc1 | 1800 | > 10000 | 39.6 | 1690 | 1250 | 5850 | > 10000 | 7510 | 24.2 | 1.63 | 1980 | 42500 | 211 | 15 | – |
| CN1C(=O)/C(=C/c2ccc3c(c2)OCO3)N=C1N [LEUCETTAMINE B] | – | > 10000 | 646 | > 10000 | 2730 | 4890 | 6370 | > 10000 | – | 36.9 | > 10000 | > 100000 | 3090 | 396 | – |

The next lines start with the values.

| IC50 [1] [nM] | IC50 [2] [nM] | IC50 [3] [nM] | IC50 [4] [nM] | IC50 [5] [nM] | IC50 [6] [nM] | IC50 [7] [nM] | IC50 [8] [nM] | IC50 ([9]; read-out: IC50) [nM] | Kd [10] [nM] | Kd [11] [nM] | IC50 at 48 h [12] [nM] | IC50 [13] [nM] | IC50 [14] [nM] | IC50 ([9]; sf9) | Compound |
| --- | --- | --- | --- | --- | --- | --- | --- | --- | --- | --- | --- | --- | --- | --- | --- |
| > 10000 | 7990 | 71.3 | 2050 | > 10000 | 7150 | > 10000 | > 10000 | 92.9 | 1.39 | > 10000 | 19900 | 40.5 | 21.1 | – | CCNc1cc(Nc2ccc(C(=O)N3CCC(N4CCOCC4)CC3)cc2OC)nc2[nH]cc(C(F)(F)F)c12 |
| > 10000 | > 10000 | 11.4 | 640 | 26.8 | 23.5 | 3690 | 2200 | 31.8 | 0.58 | 396 | 20900 | 33.3 | 6.7 | – | COC1=CC2C(=O)NC3=Cc4ccc(OC)cc4C(=C1OC)C32 (stereo not given) |
| – | > 10000 | 3610 | > 10000 | – | – | > 10000 | > 10000 | 14.6 | 6.22 | 475 | > 100000 | 5140 | 316 | – | O=C(O)c1nc2ccccc2c2[nH]c3c(I)cccc3c12 |
| 9670 | > 10000 | 319 | 2970 | 3270 | 4450 | 9590 | > 10000 | – | 5.38 | > 10000 | 58600 | – | 219 | – | CN(C)c1nccc(-c2cnn3ncccc23)n1 |
| > 10000 | > 10000 | – | > 10000 | 1100 | > 10000 | > 10000 | 3390 | – | – | 936 | > 100000 | 2500 | > 10000 | Not Active | CN1Cc2nn(C)c(C#N)c2-c2cnc3[nH]c(F)c(c3c2)-c2cn(nc2C(F)(F)F)CCCC1=O |
| > 10000 | 1770 | 21.1 | 92.6 | 15.6 | 22.7 | 108 | 3090 | 13.6 | 0.395 | 939 | 27800 | 95.3 | 14 | – | O=C1NC(=Nc2c(Cl)cccc2Cl)S/C1=C\c1ccc2nccnc2c1 |
| 273 | 2900 | – | 1190 | 10 | > 10000 | 171 | > 10000 | – | – | 9590 | 5800 | 36.5 | 9.5 | – | Cc1nc2ccc(-c3cc(N)nc(N)c3)nc2n1C(C)C |
